Experimental data taken from paper PMC5785531, “Pharmacokinetic parameters explain the therapeutic activity of antimicrobial agents in a silkworm infection model” (Scientific Reports, 2018).
In brackets after ≈: the same amount, converted by molar mass.

Experiments:
S. aureus MRSA4 = test: MIC against S. aureus MRSA4 in vitro (broth dilution); type: cell-based; details: Staphylococcus aureus
Description: We synthesized 50 compounds (Fig. 2, Supplementary Table 1) using the Steglich esterification scheme[31] in the presence of a […], 1-ethyl-3-(3-dimethylaminopropyl)-carbodiimide hydrochloride (Fig. 1b). Antimicrobial activities of the compounds were examined by determining the MIC against S. aureus MRSA4 in vitro; therapeutic activities were examined using a systemic infection model of silkworms infected with S. aureus MSSA1. […]
Antimicrobial activity was assessed by determining the MIC by broth dilution assay according to our previous reports[21],[35],[36] as per the Clinical and Laboratory Standards Institute[37]. Briefly, serial dilutions of compound 5, compound 7, and positive controls were prepared in cation-adjusted Mueller-Hinton Broth (MHB, Difco, Franklin Lakes, NJ, USA), 100 µl of which was dispensed into each well of a round-bottomed 96-well plate. The final concentrations in the well ranged from 128 µg/ml to 0.0625 µg/ml. Bacteria were grown at 37 °C overnight on either Luria Bertani (tryptone 10 g/l, yeast extract 5 g/l, NaCl 10 g/l) or Tryptic Soy Broth (TSB, Difco) agar plates or sheep blood agar plates (Eiken Chemical Co. Ltd., Tokyo, Japan). Bacterial inoculum was prepared by direct suspension of the colonies in 0.9% saline, and adjusted to obtain a turbidity equivalent to a 0.5 McFarland standard using a spectrophotometer UV-1280 (Shimadzu Corp., Kyoto, Japan). The suspension was then diluted 1:20 in cation-adjusted MHB (Difco), and 10 µl of it was inoculated into each well of previously prepared 96-well plates containing compounds to obtain approximately 5 × 10^4 colony forming units/well and incubated at 37 °C for 20 h. […] Vancomycin (Wako Pure Chemicals) or norfloxacin (Sigma Aldrich, St Louis, MO, USA) were used as positive controls. Each plate contained a growth control well and a vehicle control well. The MIC was determined as the minimum concentration that inhibited the growth of the bacteria.

[1] = Pharmacokinetics in silkworm hemolymph after intra-hemolymph injection; type: in vivo, Silkworms (Bombyx mori); details: for Cmax / AUC(0-t) / k el / AUC(0-inf) / C0 / clearance / MRT inf / Vd / half-life: Hu•Yo × Tsukuba•Ne, 50 ug, injected dose 50 μg intra-hemolymph; for AUC(0-t): 0 to last measured value (5 h); for k el: PKSolver non-compartment analysis, read-out: Lambda_z (converted); for AUC(0-inf): extrapolated to infinity; for C0: read-out: C0 (initial concentration, extrapolated time-zero value); for clearance: read-out: Cl (total clearance); for MRT inf: read-out: MRT 0-inf (mean residence time) (converted); for Vd: read-out: Vss (volume of distribution at steady state); for half-life: read-out: t1/2 (half-life at terminal phase)
Method: To gain an insight into the reason for the difference in the therapeutic activities of compounds 5 and 7, we evaluated the pharmacokinetic properties of both compounds in vivo in silkworms. We injected silkworms into the hemolymph with compound 5 or compound 7 (50 µg each) and collected the hemolymph from each injected silkworm at different time-points for high performance liquid chromatography (HPLC) analysis. The concentration-time profile was plotted and the pharmacokinetic parameters were analyzed using PKSolver[32] (Fig. 3a,b). […] The volume of distribution at steady state (Vss) value of compound 7 was larger than that of compound 5, further indicating the higher distribution capacity of compound 7 compared with compound 5. The concentrations of compounds 5 and 7 in the hemolymph decreased with time, with compound 7 having faster rate of elimination than compound 5. At 5 h, the concentration of compound 5 in the hemolymph was approximately 10-fold higher than that of 7. […] Both the area under the curves (AUC) at 5 h and that extrapolated to infinity were higher for compound 5 than for compound 7 in the silkworm.
Silkworms larvae hatched from eggs (Hu•Yo × Tsukuba•Ne, Ehime Sanshu, Ehime, Japan) were fed Silkmate 2S (Nosan Corporation, Yokohama, Japan) and grown at 27 °C until the fourth molt stage. They were, then, fed an antibiotic-free artificial food, Silkmate (Katakura Industries Co., Ltd., Tokyo, Japan), on the first day of fifth-instar larval stage. The next day, larvae (~2 g) were injected into the hemolymph with 50 µg of compounds 5 and 7 using a 1 ml syringe with a 27 G needle (Terumo Corporation, Tokyo, Japan). Silkworms were incubated after injection at 27 °C without feeding. The hemolymph was harvested from the limbs of individual silkworms at the indicated time, and the silkworms were killed after the harvest. The harvested hemolymph was mixed with an equal volume of acetonitrile followed by centrifugation at 15, 000 rpm for 10 min at 4 °C. The supernatant was collected, evaporated, and dissolved into 50% acetonitrile. The samples thus prepared were analyzed by high performance liquid chromatography (HPLC) equipped with a Waters 2998 Photodiode Array Detector (Waters Corporation, Milford, MA, USA) and a Waters 2707 Autosampler (Waters) using a Senshu-Pak Pegasil ODS-SP-100 column (4.6 Ø × 250 mm; Senshu Scientific, Tokyo, Japan) with gradient elution of 50–100% acetonitrile for 30 min at a flow rate of 1 ml/min. Standard curves for each compound were drawn by measuring the peak area on HPLC charts, and the amounts of each compound in the sample were determined. Mean concentrations from triplicate experiments were determined for each time-point and the pharmacokinetic parameters were determined using the PKSolver 2.0 ‘add-in’ for Excel 2007 on a computer running Windows 7[32]. Non-compartment analysis was performed with area under the curve calculated using the linear trapezoidal method. The terminal elimination slope, λz was calculated based on default parameters. Statistical analysis was performed using Prism 5 for Mac OS X, version 5.0 f (GraphPad Software, La Jolla, CA).

[2] = Metabolism in pooled human liver S9 fractions; type: in vitro ADME; details: 40 µg/ml compound; pooled human liver S9, NADPH, 37 °C; 10, 20, 30 min; HPLC
Method: Metabolism of the compounds was determined according to Yang et al.[38] with slight modifications. Briefly, reaction mixture containing 5 mM MgCl2, 2 mM NADPH, 20 µg/ml pooled human liver S9 fractions (Sekisui Xenotech, KS, USA) in 0.05 M Tris-HCl buffer (pH 7.4) was pre-incubated at 37 °C for 5 min. The reaction was initiated by the addition of 40 µg/ml compound 5 or compound 7 and incubation was continued. Aliquots (100 µl) were collected at 10, 20, and 30 min, and an equal volume of acetonitrile was added. The resulting mixture was analyzed by HPLC equipped with a Waters 2998 Photodiode Array Detector and a Waters 2707 Autosampler using a Senshu-Pak Pegasil ODS-SP-100 column (4.6 Ø × 250 mm) with gradient elution of 50–100% acetonitrile for 30 min at the flow rate of 1 ml/min. Statistical analysis was performed using Prism 5 for Mac OS X, version 5.0 f (GraphPad Software).

[3] = MRSA, MRSA4 (clinical isolate), median of three experiments (Table 1)
[4] = S. aureus MRSA4 in vitro, SAR series (Fig. 2)

SMILES | MIC (S. aureus MRSA4; [3]) [µg/mL] | MIC (S. aureus MRSA4; [4]) [µg/mL] | Cmax [1] [ng/mL] | AUC(0-t) [1] [ng·h/mL] | k el [1] [s⁻¹] | AUC(0-inf) [1] [ng·h/mL] | C0 [1] [ng/mL] | clearance [1] [mL/min] | MRT inf [1] [h] | Vd [1] [L] | half-life [1] [h] | concentration in the hemolymph relative to compound 7 ([1]; at 5 h after injection of 50 µg) | metabolism by human liver S9 fractions [2]
O=C(OCc1cc(Cl)cc(Cl)c1)c1ccc([N+](=O)[O-])s1 [compound 5] | 0.5 (≈ 1.51 µM) | 0.5 (≈ 1.51 µM) | 23000 | 3000 | 8.33e-05 | 3480 | 24000 | 0.23 | 2.08 | 0.03 | 2.33 | approximately 10 fold | slowly metabolized compared with compound 7
O=C(OCc1ccccc1)c1ccc([N+](=O)[O-])s1 [compound 7] | 1 (≈ 3.8 µM) | 1 (≈ 3.8 µM) | 7000 | 733 | 0.000217 | 733 | 7000 | 1.1 | 0.733 | 0.044 | 0.883 |  | 
